Results reported in patent US20250326753A1, “DUAL CXCR4-BTK INHIBITORS” (X4 Pharmaceuticals, Inc., priority 2022, published 2025).
Where two headings read alike, the source gives them in different places.

Experiments:
PAK3 = biological target: T1, PAK3 (Homo sapiens, UniProt O75914); experiment: PanQinase kinase panel: PAK3; type: biochemical; conditions: read-out: INHIBITORY EFFECT @ 1 uM: PAK3
T1 construct: purchased Reaction Biology Europe GmbH
Description: (§1) Screening procedures were performed in accordance with the company's on-line protocol [accessed on-line Mar.
(§2) For each kinase, the median value of the cpm of three wells was defined as “low control” (n=3). This value reflects unspecific binding of radioactivity to the plate in the absence of a protein kinase but in the presence of the substrate. Additionally, for each kinase the median value of the cpm of three other wells was taken as the “high control,” i.e. full activity in the absence of any inhibitor (n=3). The difference between high and low control of each enzyme was taken as 100% activity.
(§3) As part of the data evaluation the low control of each kinase was subtracted from the high control value as well as from their corresponding “compound values”. The residual activity (in %) for each compound well was calculated by using the following formula: Res. Activity (%)=100×[(signal of compound−low control)/(high control−low control)].

ERBB2 = biological target: T2, ERBB2 (Homo sapiens, UniProt P04626); experiment: PanQinase kinase panel: ERBB2; type: biochemical; conditions: read-out: INHIBITORY EFFECT @ 1 uM: ERBB2
T2 construct: purchased Reaction Biology Europe GmbH
Description: as §1, §2, §3

FER = biological target: T3, FER (Homo sapiens, UniProt P16591); experiment: PanQinase kinase panel: FER; type: biochemical; conditions: read-out: INHIBITORY EFFECT @ 1 uM: FER
T3 construct: purchased Reaction Biology Europe GmbH
Description: as §1, §2, §3

YES = biological target: T4, YES (Homo sapiens, UniProt P07947); experiment: PanQinase kinase panel: YES; type: biochemical; conditions: read-out: INHIBITORY EFFECT @ 1 uM: YES
T4 construct: purchased Reaction Biology Europe GmbH
Description: as §1, §2
(§4) As part of the data evaluation the low control of each kinase was subtracted from the high control value as well as from their corresponding “compound values”.

FYN = biological target: T5, FYN (Homo sapiens, UniProt P06241); experiment: PanQinase kinase panel: FYN; type: biochemical; conditions: read-out: INHIBITORY EFFECT @ 1 uM: FYN
T5 construct: purchased Reaction Biology Europe GmbH
Description: as §1, §2, §3

ABL2 = biological target: T6, ABL2 (Homo sapiens, UniProt P42684); experiment: PanQinase kinase panel: ABL2; type: biochemical
T6 construct: purchased Reaction Biology Europe GmbH
Description: as §1, §2, §3

LIMK2 = biological target: T7, LIMK2 (Homo sapiens, UniProt P53671); experiment: PanQinase kinase panel: LIMK2; type: biochemical
T7 construct: purchased Reaction Biology Europe GmbH
Description: as §1, §2, §3

MUSK = biological target: T8, MUSK (Homo sapiens, UniProt O15146); experiment: PanQinase kinase panel: MUSK; type: biochemical
T8 construct: purchased Reaction Biology Europe GmbH
T8 sequence (O15146 24-869): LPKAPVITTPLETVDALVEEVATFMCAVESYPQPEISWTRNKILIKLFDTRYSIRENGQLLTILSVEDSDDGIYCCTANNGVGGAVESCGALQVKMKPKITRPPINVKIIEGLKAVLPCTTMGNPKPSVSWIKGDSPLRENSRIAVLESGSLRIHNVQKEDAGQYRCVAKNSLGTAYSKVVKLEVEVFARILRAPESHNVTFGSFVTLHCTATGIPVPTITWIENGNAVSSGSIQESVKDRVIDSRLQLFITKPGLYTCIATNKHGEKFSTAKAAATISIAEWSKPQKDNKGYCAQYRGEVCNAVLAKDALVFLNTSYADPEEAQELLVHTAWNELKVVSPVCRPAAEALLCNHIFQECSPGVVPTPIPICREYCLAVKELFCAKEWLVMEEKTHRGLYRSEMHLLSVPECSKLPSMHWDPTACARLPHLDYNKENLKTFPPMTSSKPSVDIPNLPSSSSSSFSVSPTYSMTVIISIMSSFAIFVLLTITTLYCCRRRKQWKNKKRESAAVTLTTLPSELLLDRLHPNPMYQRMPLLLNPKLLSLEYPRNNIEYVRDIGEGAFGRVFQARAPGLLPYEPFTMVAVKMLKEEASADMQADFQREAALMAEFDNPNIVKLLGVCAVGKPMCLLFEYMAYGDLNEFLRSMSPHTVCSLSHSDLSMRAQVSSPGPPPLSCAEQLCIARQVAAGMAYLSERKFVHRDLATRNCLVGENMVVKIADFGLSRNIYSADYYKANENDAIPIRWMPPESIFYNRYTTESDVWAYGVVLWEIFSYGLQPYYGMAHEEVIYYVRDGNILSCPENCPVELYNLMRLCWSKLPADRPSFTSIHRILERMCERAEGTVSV
Description: as §1, §2, §3

SRC = biological target: T9, SRC (Homo sapiens, UniProt P12931); experiment: PanQinase kinase panel: SRC; type: biochemical; conditions: read-out: INHIBITORY EFFECT @ 1 uM: SRC
T9 construct: purchased Reaction Biology Europe GmbH
Description: as §1, §2, §4

GBM-U251MG = experiment: GBM cell proliferation, U251MG (cell-based cancer efficacy assays); conditions: Homo sapiens, U-251; Table 6B
[1] = read-out: INHIBITORY EFFECT @ 1 uM: ABL2
[2] = read-out: INHIBITORY EFFECT @ 1 uM: LIMK2
[3] = read-out: INHIBITORY EFFECT @ 1 uM: MUSK

T6 sequence (P42684 whole entry): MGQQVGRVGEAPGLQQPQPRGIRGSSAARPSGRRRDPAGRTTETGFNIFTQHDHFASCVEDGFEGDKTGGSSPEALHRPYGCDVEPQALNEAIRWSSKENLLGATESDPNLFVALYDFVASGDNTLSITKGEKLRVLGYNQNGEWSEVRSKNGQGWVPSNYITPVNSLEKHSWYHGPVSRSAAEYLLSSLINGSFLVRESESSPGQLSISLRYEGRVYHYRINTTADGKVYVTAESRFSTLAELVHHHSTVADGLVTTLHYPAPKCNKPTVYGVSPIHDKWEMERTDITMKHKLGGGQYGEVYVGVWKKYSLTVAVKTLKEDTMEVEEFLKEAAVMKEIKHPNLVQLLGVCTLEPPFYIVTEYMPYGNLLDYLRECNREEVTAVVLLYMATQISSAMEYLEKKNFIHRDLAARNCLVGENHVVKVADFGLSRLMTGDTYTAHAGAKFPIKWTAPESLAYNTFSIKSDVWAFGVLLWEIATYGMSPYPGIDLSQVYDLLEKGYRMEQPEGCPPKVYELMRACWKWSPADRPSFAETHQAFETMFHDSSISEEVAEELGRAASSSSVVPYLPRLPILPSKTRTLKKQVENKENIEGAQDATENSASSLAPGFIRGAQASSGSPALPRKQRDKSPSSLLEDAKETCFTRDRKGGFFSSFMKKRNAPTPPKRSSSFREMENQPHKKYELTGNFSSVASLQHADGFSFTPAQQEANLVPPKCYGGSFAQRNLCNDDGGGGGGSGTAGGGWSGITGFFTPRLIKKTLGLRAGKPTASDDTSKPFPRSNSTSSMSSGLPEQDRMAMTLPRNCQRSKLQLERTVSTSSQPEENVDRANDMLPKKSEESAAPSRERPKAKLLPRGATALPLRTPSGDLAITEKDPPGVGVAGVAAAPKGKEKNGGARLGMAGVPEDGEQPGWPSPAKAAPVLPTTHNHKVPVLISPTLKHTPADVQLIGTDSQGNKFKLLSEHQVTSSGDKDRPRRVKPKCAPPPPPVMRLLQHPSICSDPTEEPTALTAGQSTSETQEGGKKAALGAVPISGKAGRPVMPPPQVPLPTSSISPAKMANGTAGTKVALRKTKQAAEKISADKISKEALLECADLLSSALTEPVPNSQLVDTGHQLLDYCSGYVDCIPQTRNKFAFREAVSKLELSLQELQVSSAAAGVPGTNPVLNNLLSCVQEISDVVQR
T2 sequence (P04626 23-1255): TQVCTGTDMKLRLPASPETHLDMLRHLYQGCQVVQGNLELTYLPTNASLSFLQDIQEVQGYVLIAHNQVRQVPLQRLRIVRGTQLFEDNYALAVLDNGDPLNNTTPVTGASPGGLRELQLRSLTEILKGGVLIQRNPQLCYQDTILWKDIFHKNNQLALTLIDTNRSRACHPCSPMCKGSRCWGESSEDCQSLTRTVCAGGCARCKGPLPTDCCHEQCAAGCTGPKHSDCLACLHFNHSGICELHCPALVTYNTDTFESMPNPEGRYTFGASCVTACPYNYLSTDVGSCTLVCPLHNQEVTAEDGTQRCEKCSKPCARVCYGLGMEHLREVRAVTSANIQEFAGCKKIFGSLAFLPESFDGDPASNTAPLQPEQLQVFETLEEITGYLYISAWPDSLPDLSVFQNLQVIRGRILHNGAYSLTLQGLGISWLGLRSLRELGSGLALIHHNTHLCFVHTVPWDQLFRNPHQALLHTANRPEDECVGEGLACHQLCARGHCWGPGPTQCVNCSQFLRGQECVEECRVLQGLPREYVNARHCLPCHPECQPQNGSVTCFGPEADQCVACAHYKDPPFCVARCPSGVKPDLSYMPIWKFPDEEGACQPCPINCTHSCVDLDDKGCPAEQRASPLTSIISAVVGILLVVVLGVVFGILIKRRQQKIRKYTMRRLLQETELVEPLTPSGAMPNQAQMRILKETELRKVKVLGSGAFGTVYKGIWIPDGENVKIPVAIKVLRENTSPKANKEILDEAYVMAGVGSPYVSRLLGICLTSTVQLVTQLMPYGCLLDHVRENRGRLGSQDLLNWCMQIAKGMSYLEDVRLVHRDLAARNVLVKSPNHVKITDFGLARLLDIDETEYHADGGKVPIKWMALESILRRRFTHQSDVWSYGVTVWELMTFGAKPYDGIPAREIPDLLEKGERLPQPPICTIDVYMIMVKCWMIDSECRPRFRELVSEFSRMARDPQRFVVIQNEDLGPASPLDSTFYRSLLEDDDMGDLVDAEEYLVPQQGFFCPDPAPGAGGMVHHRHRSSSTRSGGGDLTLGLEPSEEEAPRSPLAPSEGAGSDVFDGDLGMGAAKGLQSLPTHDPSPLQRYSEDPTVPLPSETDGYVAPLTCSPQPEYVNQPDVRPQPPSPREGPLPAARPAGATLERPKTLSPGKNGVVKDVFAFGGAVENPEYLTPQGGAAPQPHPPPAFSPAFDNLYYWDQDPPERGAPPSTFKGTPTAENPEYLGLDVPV
T1 sequence (O75914 whole entry): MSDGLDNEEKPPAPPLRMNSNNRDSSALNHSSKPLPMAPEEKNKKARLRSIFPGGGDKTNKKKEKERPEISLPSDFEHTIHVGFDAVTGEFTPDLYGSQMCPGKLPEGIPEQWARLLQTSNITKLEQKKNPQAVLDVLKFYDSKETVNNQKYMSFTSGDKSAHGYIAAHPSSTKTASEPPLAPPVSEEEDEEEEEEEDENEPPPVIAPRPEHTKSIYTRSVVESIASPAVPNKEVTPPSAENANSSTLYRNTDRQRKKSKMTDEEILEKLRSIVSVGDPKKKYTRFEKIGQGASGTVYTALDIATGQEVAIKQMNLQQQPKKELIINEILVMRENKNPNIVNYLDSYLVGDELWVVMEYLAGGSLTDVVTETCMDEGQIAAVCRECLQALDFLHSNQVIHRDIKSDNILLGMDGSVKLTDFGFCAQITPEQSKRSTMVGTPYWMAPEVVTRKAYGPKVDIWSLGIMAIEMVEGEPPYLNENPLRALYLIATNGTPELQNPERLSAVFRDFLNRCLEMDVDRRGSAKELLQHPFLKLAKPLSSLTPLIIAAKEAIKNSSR
T7 sequence (P53671 whole entry): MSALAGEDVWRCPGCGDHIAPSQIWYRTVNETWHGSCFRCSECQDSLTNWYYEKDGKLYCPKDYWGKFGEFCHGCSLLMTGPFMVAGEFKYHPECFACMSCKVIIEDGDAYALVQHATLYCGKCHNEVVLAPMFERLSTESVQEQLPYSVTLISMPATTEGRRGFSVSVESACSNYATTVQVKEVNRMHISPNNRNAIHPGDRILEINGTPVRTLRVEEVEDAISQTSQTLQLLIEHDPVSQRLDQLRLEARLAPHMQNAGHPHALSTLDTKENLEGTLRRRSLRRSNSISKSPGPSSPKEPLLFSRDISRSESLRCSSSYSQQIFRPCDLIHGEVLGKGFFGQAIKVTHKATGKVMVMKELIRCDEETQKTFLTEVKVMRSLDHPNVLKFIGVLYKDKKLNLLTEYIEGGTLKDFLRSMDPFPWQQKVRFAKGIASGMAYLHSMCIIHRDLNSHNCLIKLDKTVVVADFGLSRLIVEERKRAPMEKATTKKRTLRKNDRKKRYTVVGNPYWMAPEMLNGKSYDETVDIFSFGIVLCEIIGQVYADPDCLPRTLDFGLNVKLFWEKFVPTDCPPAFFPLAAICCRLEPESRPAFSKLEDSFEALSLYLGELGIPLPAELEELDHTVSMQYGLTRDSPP
T3 sequence (P16591 whole entry): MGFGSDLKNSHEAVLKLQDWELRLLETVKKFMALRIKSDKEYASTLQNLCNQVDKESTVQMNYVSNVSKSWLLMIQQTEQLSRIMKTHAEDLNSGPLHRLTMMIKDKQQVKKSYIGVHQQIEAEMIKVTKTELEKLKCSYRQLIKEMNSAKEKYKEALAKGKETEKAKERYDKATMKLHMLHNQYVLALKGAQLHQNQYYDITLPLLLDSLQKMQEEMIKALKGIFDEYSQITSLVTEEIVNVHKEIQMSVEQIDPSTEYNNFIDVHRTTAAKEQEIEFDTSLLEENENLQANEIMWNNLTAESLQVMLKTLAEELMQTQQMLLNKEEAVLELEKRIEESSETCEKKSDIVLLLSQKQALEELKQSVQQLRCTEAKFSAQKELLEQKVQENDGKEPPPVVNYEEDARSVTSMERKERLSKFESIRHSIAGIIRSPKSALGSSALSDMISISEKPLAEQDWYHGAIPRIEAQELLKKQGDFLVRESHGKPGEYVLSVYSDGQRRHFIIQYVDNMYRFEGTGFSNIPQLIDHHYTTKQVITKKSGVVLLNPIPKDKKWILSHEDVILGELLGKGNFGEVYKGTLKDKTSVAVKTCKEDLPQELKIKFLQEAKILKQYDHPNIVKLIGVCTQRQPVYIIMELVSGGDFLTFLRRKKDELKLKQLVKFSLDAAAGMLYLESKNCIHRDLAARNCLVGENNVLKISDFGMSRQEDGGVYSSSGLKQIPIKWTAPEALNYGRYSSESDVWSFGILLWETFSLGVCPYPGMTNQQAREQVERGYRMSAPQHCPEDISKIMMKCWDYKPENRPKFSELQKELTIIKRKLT
T4 sequence (P07947 whole entry): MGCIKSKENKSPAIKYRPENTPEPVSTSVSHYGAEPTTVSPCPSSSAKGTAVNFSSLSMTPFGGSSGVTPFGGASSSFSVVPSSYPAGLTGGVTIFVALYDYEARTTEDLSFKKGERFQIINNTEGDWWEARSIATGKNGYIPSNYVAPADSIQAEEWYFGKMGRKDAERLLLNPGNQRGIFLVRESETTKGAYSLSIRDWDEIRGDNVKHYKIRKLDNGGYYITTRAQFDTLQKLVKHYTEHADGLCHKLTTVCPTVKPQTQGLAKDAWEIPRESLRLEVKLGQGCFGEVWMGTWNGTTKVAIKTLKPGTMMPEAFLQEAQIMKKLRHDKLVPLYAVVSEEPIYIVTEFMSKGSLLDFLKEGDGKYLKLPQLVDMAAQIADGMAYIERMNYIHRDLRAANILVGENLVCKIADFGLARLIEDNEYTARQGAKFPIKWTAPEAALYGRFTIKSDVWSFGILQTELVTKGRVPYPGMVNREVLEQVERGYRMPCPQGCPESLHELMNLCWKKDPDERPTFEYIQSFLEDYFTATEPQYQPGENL

Row | Compound | inhibition at 1 µM (PAK3) | inhibition at 1 µM (ERBB2) | inhibition at 1 µM (FER) | inhibition at 1 µM (YES) | inhibition at 1 µM (FYN) | inhibition at 1 µM (ABL2; at 1 μM, read-out: inhibition of ABL2) | inhibition at 1 µM (ABL2; [1]) | inhibition at 1 µM (LIMK2; at 1 μM, read-out: inhibition of LIMK2) | inhibition at 1 µM (LIMK2; [2]) | inhibition at 1 µM (MUSK; at 1 μM, read-out: inhibition of MUSK) | inhibition at 1 µM (MUSK; [3]) | inhibition at 1 µM (SRC) | Emax (GBM-U251MG) | IC50 (GBM-U251MG)
1 | O=C(c1ccc(Oc2ccccc2)cc1Cl)c1c[nH]c2ncnc(N[C@@H]3CC[C@@H](CO)OC3)c12 [ARQ-531, (2-chloro-4-phenoxyphenyl) (4-(((3R,6S)-6-(hydroxymethyl)tetrahydro-2H-pyran-3-yl)amino)-7H-pyrrolo[2,3-d]pyrimidin-5-yl) methanone] | 90 to 100% | 70 to 89% | 70 to 89% |  |  |  |  |  |  |  |  |  |  | 
2 | Cc1cccnc1[C@H]1CCC[C@@H](c2ncccc2C)N1CCN1CCN(C(=O)c2ccc(-c3cc4c(-c5cccc(NC(=O)c6ccccc6)c5C)ncnc4[nH]3)cc2)CC1 [Compound I-10, N-(3-(6-(4-(4-(2-((2R,6S)-2,6-bis(3-methylpyridin-2-yl)piperidin-1-yl)ethyl)piperazine-1-carbonyl)phenyl)-7H-pyrrolo[2,3-d]pyrimidin-4-yl)-2-methylphenyl)benzamide] | < 50% | < 50% | < 50% | < 50% | < 50% | 50 to 89% | 70 to 89% | 50 to 89% | 50 to 69% | 50 to 89% | 70 to 89% | < 50% | 98% | 2120 nM
3 | Cc1cc(-c2ccnc(Nc3cnn(CCN4[C@@H](c5ncccc5C)CCC[C@H]4c4ncccc4C)c3)n2)ccc1CNC(=O)N1CC(OC(C)C)C1 [Compound I-11] |  |  |  |  |  |  |  |  |  |  |  |  | 82% | 930 nM
4 | COc1ccc(F)cc1C(=O)NCc1ccc(-c2nn([C@@H](C)C(F)(F)F)c(N)c2C(N)=O)cc1 [LOXO-305, pirtobrutinib] | < 50% | 50 to 69% | < 50% | < 50% | < 50% |  | < 50% |  | < 50% |  | < 50% | < 50% |  | 
5 | C=CC(=O)N1CCC([C@@H]2CCNc3c(C(N)=O)c(-c4ccc(Oc5ccccc5)cc4)nn32)CC1 [Zanubrutinib, (7S)-2-(4-phenoxyphenyl)-7-(1-prop-2-enoylpiperidin-4-yl)-4,5,6,7-tetrahydropyrazolo[1,5-a]pyrimidine-3-carboxamide] | < 50% | < 50% | < 50% |  |  |  | < 50% |  | < 50% |  | < 50% |  |  | 
